How the values were obtained:
[1] = tested on: cytoplasmic microtubules; assay: Cell biology studies of microtubules (immunofluorescent light microscopy, transmission electron microscopy, flow cytometry); format: cell-based; conditions: appears to affect only the spindle microtubules
From the text: (§1) The potent oncolytic activity of the compound to be employed in the present method of treatment has been established in standard tests designed to evaluate antitumor activity. […] The effect on spindle; microtubules appears to reflect a specific effect on the microtubule organizing center of the spindle, i.e., the centrosomes. These studies have been documented by immunofluorescent light microscopy, transmission electron microscopy and flow cytometric techniques. […] In cell culture, the compound has antimitotic activity at 2.5 u.g/ml and affects mitochondrial function at 0.01 u.g/ml as measured by alterations in Rhodamine 123 binding.

[2] = tested on: Chinese hamster ovary cells; assay: Cell cycle accumulation in cells grown in low calcium medium; format: cell-based
From the text: as §1

[3] = tested on: CA-755 Adenocarcinoma; assay: In vivo tumor growth inhibition, subcutaneously implanted tumor in mice; conditions: intravenous injection twice daily for five days, started the day following inoculation
Description: (§2) The compound of the above example has been extensively evaluated for oncolytic activity in in vivo laboratory studies. In a typical experiment, laboratory mice were infected by subcutaneous implantation of a tumor tissue in the axillary region of the body. The implantations were accomplished by means of a trocar. Initial tumor size in each animal generally was about 2 square millimeters. Control animals received saline. Tumors were measured using vernier calipers (length and width in mm) following a specified period of treatment. The length and width measurements were converted to tumor weight by the formula: • The percent inhibition of tumor growth was then calculated for each dose level at which the compound was evaluated. Typical tumor systems implanted and against which the compound was evaluated include the CA-755 strain of adenocarcinoma, the M-5 ovarian carcinoma, the 6C3HED lymphosarcoma, the X-5563 plasma cell myeloma, the Lewis lung carcinoma, colon carcinoma-26, and C3H mammary adenocarcinoma.
(§3) Each test group consisted of ten mice. R-N-(2-phenyl-2-hydroxyethyl)-1,i-dimethyl-3-(4-aminocarbonylphenyl)propylamine hydrochloride was dissolved in 5% aqueous saline and administered twice daily for five days as a 0.2 ml intravenous injection. Treatment was initiated on the day following inoculation of the test animals.

[4] = tested on: X-5563 Plasma Cell Myeloma; assay: as above; conditions: intravenous injection twice daily for five days, started the day following inoculation
Description: as §2, §3

[5] = tested on: 6C3HED Lymphosarcoma; assay: as above; conditions: intravenous injection twice daily for five days, started the day following inoculation
Description: as §2, §3

[6] = tested on: Lewis Lung Carcinoma; assay: as above; conditions: intravenous injection twice daily for five days, started the day following inoculation
Description: as §2, §3

[7] = tested on: C3H Mammary Adenocarcinoma; assay: as above; conditions: intravenous injection twice daily for five days, started the day following inoculation
Description: as §2, §3

[8] = tested on: M-5 Ovarian Carcinoma; assay: In vivo tumor growth inhibition, delayed treatment of established tumor in mice; conditions: I.V. injection twice daily for five days, 5 days delay following inoculation
Description: as §2
(§4) Table II presents the results of studies carried out substantially as described above, except the treatment regimens were delayed for a short period following inoculation to permit the tumor to become established and start growing. Treatment consisted of I.V. injection of 02 ml of the appropriate amount of R-N-(2-phenyl-2-hydroxyethyl)-1,1-dimethyl-3-(4-aminocarbonylphenyl)propylamine hydrochloride in 5% aqueous saline twice daily for five days. Tumors were then measured as described above and compared with untreated controls.

[9] = tested on: Colon Carcinoma-26; assay: as above; conditions: I.V. injection twice daily for five days, 3 days delay following inoculation
Description: as §2, §4

[10] = tested on: cell culture; assay: Antimitotic activity in cell culture; format: cell-based; conditions: concentration at which activity is seen
From the text: as §1

Compound: CC(C)(CCc1ccc(C(N)=O)cc1)NC[C@H](O)c1ccccc1.Cl [Compound, R-N-(2-phenyl-2-hydroxyethyl)-1,1-dimethyl-3-(4-aminocarbonylphenyl)propylamine hydrochloride]
- effect on cytoplasmic microtubules [1]: no apparent effect
- S-phase accumulation [2]: causes an S-phase accumulation
- % Inhibition ([3]; Dose 10 mg/kg): 79%
- % Inhibition ([3]; Dose 20 mg/kg): 95%
- % Inhibition ([3]; Dose 40 mg/kg): 92%
- % Inhibition ([3]; Dose 80 mg/kg): 95%
- % Inhibition ([4]; Dose 20 mg/kg): 29%
- % Inhibition ([4]; Dose 40 mg/kg): 21%
- % Inhibition ([4]; Dose 80 mg/kg): 65%
- % Inhibition ([5]; Dose 20 mg/kg): 11%
- % Inhibition ([5]; Dose 40 mg/kg): 9%
- % Inhibition ([5]; Dose 80 mg/kg): 23%
- % Inhibition ([6]; Dose 20 mg/kg): 35%
- % Inhibition ([6]; Dose 40 mg/kg): 68%
- % Inhibition ([6]; Dose 80 mg/kg): 81%
- % Inhibition ([7]; Dose 20 mg/kg): 57%
- % Inhibition ([7]; Dose 40 mg/kg): 95%
- % Inhibition ([7]; Dose 80 mg/kg): 96%
- % Inhibition ([8]; Dose 20 (mg/ml)): 40%
- Deaths/total mice in group ([8]; Dose 20 (mg/ml)): 0/10
- % Inhibition ([8]; Dose 40 (mg/ml)): 61%
- Deaths/total mice in group ([8]; Dose 40 (mg/ml)): 0/10
- % Inhibition ([8]; Dose 80 (mg/ml)): 81%
- Deaths/total mice in group ([8]; Dose 80 (mg/ml)): 0/10
- % Inhibition ([9]; Dose 20 (mg/ml)): 30%
- Deaths/total mice in group ([9]; Dose 20 (mg/ml)): 0/10
- % Inhibition ([9]; Dose 40 (mg/ml)): 61%
- Deaths/total mice in group ([9]; Dose 40 (mg/ml)): 1/10
- % Inhibition ([9]; Dose 80 (mg/ml)): 64%
- Deaths/total mice in group ([9]; Dose 80 (mg/ml)): 4/9
- minimal effective concentration [10]: 2.5 µg/mL

Reference: EP0241618A2, “Phenyl ethanol amine derivative for use as an oncolytic medicament” (ELI LILLY AND COMPANY, priority 1985, dated 1987)
